This note sets out measurements from ChEMBL document CHEMBL4049398, “Microscale High-Throughput Experimentation as an Enabling Technology in Drug Discovery: Application in the Discovery of (Piperidinyl)pyridinyl-1H-benzimidazole Diacylglycerol Acyltransferase 1 Inhibitors” (J Med Chem, 2017).

Converted amounts (≈) assume the structure as drawn.

The target in data set [1] is T1, Diacylglycerol O-acyltransferase 1 (Homo sapiens, UniProt O75907).
T1 sequence (O75907 whole entry): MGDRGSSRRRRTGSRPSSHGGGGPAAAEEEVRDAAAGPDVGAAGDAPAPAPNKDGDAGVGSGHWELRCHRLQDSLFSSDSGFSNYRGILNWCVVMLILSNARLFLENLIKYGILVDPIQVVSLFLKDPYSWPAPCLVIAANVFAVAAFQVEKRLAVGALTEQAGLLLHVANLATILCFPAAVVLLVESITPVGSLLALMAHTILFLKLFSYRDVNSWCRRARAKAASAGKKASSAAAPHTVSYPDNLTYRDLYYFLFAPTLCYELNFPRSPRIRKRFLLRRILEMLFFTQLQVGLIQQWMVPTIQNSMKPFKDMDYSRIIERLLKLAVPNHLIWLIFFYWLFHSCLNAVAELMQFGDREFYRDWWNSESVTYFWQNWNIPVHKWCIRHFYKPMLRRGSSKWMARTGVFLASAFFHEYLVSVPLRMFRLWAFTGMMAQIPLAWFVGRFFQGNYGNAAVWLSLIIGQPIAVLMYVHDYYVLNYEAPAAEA
Kind of data set: Inhibition of human DGAT1 expressed in yeast membrane fraction assessed as inhibition of triglyceride formation using diolein/oleoyl-CoA as substrate measured after 1 hr by 7-diethylamino-3-(4'-maleimidylphenyl)-4-methylcoumarin based fluorescence analysis. The data set is classed as cell membranes.

Data set [2] can be described thus: Solubility of the compound at pH 2. Particulars: buffer. The class given is physicochemical.
The nature of data set [3]: Solubility of the compound at pH 7. The class given is physicochemical. Particulars: buffer.
A short description of data set [4]: Lipophilicity, log D of the compound. The data set is classed as physicochemical. Particulars: octanol/water.
The target in data set [5] is Voltage-gated inwardly rectifying potassium channel KCNH2 (Homo sapiens, UniProt Q12809). Kind of data set: Inhibition of MK499 binding to human ERG.
Chain of Voltage-gated inwardly rectifying potassium channel KCNH2 (Q12809 whole entry): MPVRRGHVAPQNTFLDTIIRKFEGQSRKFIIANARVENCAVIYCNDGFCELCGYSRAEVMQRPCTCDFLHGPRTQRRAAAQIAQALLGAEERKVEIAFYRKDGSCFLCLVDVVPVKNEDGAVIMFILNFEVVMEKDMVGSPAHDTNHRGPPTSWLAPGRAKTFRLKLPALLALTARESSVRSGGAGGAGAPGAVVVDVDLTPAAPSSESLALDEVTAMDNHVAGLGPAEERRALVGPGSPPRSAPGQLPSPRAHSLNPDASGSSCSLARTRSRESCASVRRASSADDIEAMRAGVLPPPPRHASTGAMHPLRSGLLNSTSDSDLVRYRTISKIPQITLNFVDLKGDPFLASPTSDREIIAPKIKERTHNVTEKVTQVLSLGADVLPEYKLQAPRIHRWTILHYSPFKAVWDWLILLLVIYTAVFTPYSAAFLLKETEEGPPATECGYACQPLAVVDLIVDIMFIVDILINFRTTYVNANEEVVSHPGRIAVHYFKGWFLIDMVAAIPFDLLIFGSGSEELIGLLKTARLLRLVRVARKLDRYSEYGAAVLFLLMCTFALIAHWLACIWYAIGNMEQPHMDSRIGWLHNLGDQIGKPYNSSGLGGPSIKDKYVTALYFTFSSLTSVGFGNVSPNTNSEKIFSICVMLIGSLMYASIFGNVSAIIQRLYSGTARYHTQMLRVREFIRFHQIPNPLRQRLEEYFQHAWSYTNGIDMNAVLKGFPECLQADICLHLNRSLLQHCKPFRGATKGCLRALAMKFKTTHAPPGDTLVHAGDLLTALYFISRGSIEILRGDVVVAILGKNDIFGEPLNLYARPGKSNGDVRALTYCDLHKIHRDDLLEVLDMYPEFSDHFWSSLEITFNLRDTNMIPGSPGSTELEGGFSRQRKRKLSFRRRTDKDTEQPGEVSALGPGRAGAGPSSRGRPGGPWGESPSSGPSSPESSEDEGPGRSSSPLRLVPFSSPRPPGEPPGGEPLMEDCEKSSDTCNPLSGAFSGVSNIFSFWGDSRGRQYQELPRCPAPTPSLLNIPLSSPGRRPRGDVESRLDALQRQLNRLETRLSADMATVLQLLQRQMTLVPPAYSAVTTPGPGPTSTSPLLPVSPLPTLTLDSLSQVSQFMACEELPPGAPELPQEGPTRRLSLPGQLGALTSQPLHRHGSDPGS
For the next data set, the target named is Cytochrome P450 2C9 (Homo sapiens, UniProt P11712). Kind of data set: Inhibition of CYP2C9 (unknown origin). The class given is ADME.
Chain of Cytochrome P450 2C9 (P11712 whole entry): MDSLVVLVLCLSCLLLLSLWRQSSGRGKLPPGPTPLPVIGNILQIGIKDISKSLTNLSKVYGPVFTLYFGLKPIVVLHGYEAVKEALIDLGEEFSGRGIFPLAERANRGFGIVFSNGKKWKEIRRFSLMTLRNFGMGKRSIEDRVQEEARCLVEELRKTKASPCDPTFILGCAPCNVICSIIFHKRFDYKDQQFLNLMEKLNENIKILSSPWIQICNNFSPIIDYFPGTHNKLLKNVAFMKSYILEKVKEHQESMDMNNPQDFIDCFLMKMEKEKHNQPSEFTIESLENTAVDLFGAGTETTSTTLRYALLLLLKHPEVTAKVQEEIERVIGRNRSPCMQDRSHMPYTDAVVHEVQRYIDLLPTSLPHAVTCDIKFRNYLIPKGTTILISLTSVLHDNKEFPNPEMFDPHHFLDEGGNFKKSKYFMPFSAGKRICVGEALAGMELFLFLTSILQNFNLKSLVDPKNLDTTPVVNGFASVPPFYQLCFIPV
The target of another data set is Cytochrome P450 3A4 (Homo sapiens, UniProt P08684). Put plainly: Inhibition of CYP3A4 (unknown origin). The class given is ADME.
Chain of Cytochrome P450 3A4 (P08684 whole entry): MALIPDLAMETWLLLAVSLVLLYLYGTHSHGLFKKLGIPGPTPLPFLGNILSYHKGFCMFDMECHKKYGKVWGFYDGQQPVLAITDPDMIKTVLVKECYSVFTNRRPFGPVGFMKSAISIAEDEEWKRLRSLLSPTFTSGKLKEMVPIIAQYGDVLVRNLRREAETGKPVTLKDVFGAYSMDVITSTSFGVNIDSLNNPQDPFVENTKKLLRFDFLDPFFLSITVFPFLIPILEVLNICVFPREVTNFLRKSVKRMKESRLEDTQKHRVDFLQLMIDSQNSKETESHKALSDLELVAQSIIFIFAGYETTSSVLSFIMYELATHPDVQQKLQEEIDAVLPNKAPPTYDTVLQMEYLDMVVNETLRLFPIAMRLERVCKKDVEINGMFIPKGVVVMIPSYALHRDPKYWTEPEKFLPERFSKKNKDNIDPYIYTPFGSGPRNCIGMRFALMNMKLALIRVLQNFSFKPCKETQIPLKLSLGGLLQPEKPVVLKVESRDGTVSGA
Data set [6] has as its target T2, Nuclear receptor subfamily 1 group I member 2 (Homo sapiens, UniProt O75469).
T2 sequence (O75469 whole entry): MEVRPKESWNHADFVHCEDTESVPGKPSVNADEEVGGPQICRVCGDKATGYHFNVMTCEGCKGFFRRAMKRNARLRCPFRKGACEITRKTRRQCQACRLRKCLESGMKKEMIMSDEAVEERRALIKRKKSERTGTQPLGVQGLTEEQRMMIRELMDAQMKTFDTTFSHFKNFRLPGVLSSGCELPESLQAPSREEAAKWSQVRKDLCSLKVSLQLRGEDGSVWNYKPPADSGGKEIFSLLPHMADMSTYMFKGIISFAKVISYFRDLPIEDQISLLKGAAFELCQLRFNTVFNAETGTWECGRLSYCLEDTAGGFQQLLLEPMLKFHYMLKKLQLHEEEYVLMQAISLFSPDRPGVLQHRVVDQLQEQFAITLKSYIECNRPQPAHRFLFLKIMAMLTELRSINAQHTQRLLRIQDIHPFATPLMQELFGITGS
Put plainly: Inhibition of PXR (unknown origin). The data set is classed as ADME.

With `Cc1cccc(Cl)c1NC(=O)N1CCN(c2ccc(-c3nc4cc(C(F)(F)F)ccc4[nH]3)cn2)CC1`, in data set [1], the IC50 was found to be 0.089 µM.
With `O=C1OC2(CCN(c3ccc(-c4nc5cc(Cl)ccc5[nH]4)cn3)CC2)c2ccccc21`, the IC50 in data set [1] came to 0.052 µM.
For the molecule `O=C(O)C1CCC2(CCN(c3ccc(-c4nc5cc(C(F)(F)F)ccc5[nH]4)cn3)CC2)CO1` (configuration not stated), the solubility in data set [2] (read-out: solubility) is 167 µM (≈ 76.9 µg/mL); in data set [3] (read-out: solubility), 154 µM (≈ 70.9 µg/mL). In addition, in data set [1], the half-maximal inhibitory concentration (IC50) was 0.364 µM. In data set [4] (read-out: logD), the logD was 1.54.
For `Clc1ccc2[nH]c(-c3ccc(N4C[C@@H]5C[C@H]4CN5c4ccccc4)nc3)nc2c1`, the IC50 in data set [1] is above 10 µM.
As to `O=C(O)c1ccc2c(c1)C(=O)OC21CCN(c2ccc(-c3nc4cc(C(F)(F)F)ccc4[nH]3)cn2)CC1`, the solubility in data set [2] (read-out: solubility) was below 10 µM. Also, the IC50 in data set [5] turned out to be 0.56 µM.
Turning to `FC(F)(F)c1ccc2[nH]c(-c3ccc(N4CCC5(CC4)OC(Cc4cc(Cl)cc(Cl)c4)c4ccccc45)nc3)nc2c1` (configuration not stated), the IC50 in data set [1] is 8.7 µM.
In the case of `O=C(O)CC1CCOC2(CCN(c3ccc(-c4nc5cc(C(F)(F)F)ccc5[nH]4)cn3)CC2)C1` (racemic), the solubility in data set [2] (read-out: solubility) is 185 µM (≈ 87.8 µg/mL); in data set [3] (read-out: solubility) it was 184 µM (≈ 87.3 µg/mL). Besides, the IC50 against Cytochrome P450 2C9 was above 50 µM; against Cytochrome P450 3A4, above 50 µM; in data set [6], above 30 µM. Besides, in data set [4] (read-out: logD), the logD came to 1.43.
With `CS(=O)(=O)C1CCN(c2ccc(-c3nc4cc(C(F)(F)F)ccc4[nH]3)cn2)CC1`, the IC50 in data set [1] stood at 0.216 µM.
For `O=C1OC2(CCN(c3ccc(-c4nc5cc(Cl)ccc5[nH]4)cn3)CC2)c2cnccc21`, the IC50 in data set [1] turned out to be 0.066 µM.
With `N#Cc1ccc(N2C(=O)NC3(CCN(c4ccc(-c5nc6cc(C(F)(F)F)ccc6[nH]5)cn4)CC3)C2=O)cc1`, in data set [1], the IC50 is 0.377 µM.
Still for that read-out and setting: in the case of `FC(F)(F)c1ccc2[nH]c(-c3ccc(N4CCC(c5ccccn5)CC4)nc3)nc2c1` it was 0.062 µM; in that of `O=S1(=O)CCC(N2CCN(c3ccc(-c4nc5cc(C(F)(F)F)ccc5[nH]4)cn3)CC2)C1` (configuration not stated), 0.131 µM; in that of `FC(F)(F)c1ccc2[nH]c(-c3ccc(N4CCC(c5ccccc5)(c5ccccc5)CC4)nc3)nc2c1`, 1.64 µM.
As for `O=C(O)C[C@H]1COC2(CCN(c3ccc(-c4nc5cc(C(F)(F)F)ccc5[nH]4)cn3)CC2)C1`, the figures for the solubility in data set [2] (read-out: solubility) and in data set [3] (read-out: solubility) were 170 µM (≈ 78.3 µg/mL) and 153 µM (≈ 70.4 µg/mL), respectively. The IC50 on Cytochrome P450 2C9 was above 50 µM; at Cytochrome P450 3A4, above 50 µM; in data set [6] it was above 30 µM. For the same molecule, in data set [4] (read-out: logD), the logD was determined as 1.45.
Turning to `O=C(O)CC1CCC2(CC1)CCN(c1ccc(-c3nc4cc(C(F)(F)F)ccc4[nH]3)cn1)CC2`, the values for the solubility in data set [2] (read-out: solubility) and in data set [3] (read-out: solubility) were below 4 µM and 45 µM (≈ 21.3 µg/mL), respectively. Also, the IC50 was 0.006 µM in data set [1], 10.8 µM against Cytochrome P450 2C9, 6.4 µM against Cytochrome P450 3A4 and above 30 µM in data set [6]. Also, the pH-dependent lipophilicity (logD) in data set [4] (read-out: logD) came to 1.76.
For the molecule `Clc1ccc2[nH]c(-c3ccc(N4CCC5(CC4)OCc4ccccc45)nc3)nc2c1`, the IC50 in data set [1] worked out at 0.137 µM.
Same read-out and setting: in the case of `O=C1OC2(CCN(c3ccc(-c4nc5cc(C(F)(F)F)ccc5[nH]4)cn3)CC2)CN1c1ccccc1` it was 1.41 µM.
Turning to `O=C1OC2(CCN(c3ccc(-c4nc5cc(Cl)ccc5[nH]4)cn3)CC2)c2ncccc21`, the solubility in data set [2] (read-out: solubility) was below 10 µM. The values for the IC50 (in data set [1]; on Cytochrome P450 2C9) were 0.01 µM and 3.4 µM, respectively.
With `O=C(O)CC1CCOC2(CCN(c3ccc(-c4nc5cc(C(F)(F)F)ccc5[nH]4)cn3)CC2)C1` (stereo in doubt; form 1), the solubility turned out to be 173 µM (≈ 82.1 µg/mL) in data set [2] and 168 µM (≈ 79.7 µg/mL) in data set [3]. The IC50 is 45.2 µM against Cytochrome P450 2C9, above 50 µM on Cytochrome P450 3A4 and above 30 µM in data set [6]. The log distribution coefficient (logD) in data set [4] worked out at 1.48.
On to `O=C(O)CC1CCOC2(CCN(c3ccc(-c4nc5cc(C(F)(F)F)ccc5[nH]4)cn3)CC2)C1` (stereo in doubt; form 2), for which the values for the solubility in data set [2] and in data set [3] were 169 µM (≈ 80.2 µg/mL) and 174 µM (≈ 82.6 µg/mL), respectively. The IC50 at Cytochrome P450 2C9 was 35.1 µM; against Cytochrome P450 3A4 it was above 50 µM; in data set [6], above 30 µM. In data set [4], the logD turned out to be 1.47.

Usually IC50 stands for the concentration that gives 50% inhibition. One may read the solubility as how much of the substance goes into solution per volume. As a reminder, the logD is lipophilicity at a set pH, counting ionised and neutral species.
